Test results from the supplement of paper PMC6045584.
± gives the standard deviation of the averaged measurements.

Tests used:
[1] = compound: CCc1cc(Nc2nccc(-c3c(-c4ccc(OC)c(C(=O)Nc5c(F)cccc5F)c4)nc4ccccn34)n2)c(OC)cc1N1CCC(N2CCN(S(C)(=O)=O)CC2)CC1; assay: surviving fraction relative to DMSO-only wells; higher = less growth inhibition; conditions: exposure time: 5 days
Procedure, shortened: (§1)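 Inhibitors were tested at 0.5, 1, 5, 10, 50, 100, 500 and 1000 nM, applied continuously for five days beginning 24 hours after log-phase tumour cells were seeded at 250–500 per well in 384-well plates. CellTiter-Glo luminescence served as the viability measure, expressed as surviving fraction against the median of DMSO-only wells. Each line, screened three times, was kept only with replicate Pearson r >0.7 and median Z' >0.3.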

MK-1775 = compound: C=CCn1c(=O)c2cnc(Nc3ccc(N4CCN(C)CC4)cc3)nc2n1-c1cccc(C(C)(C)O)n1 [MK-1775]; assay: as above; conditions: exposure time: 5 days
Procedure, shortened: as §1

Row | Test System | surviving fraction ([1]; 0.5 nM) | surviving fraction ([1]; 1 nM) | surviving fraction ([1]; 5 nM) | surviving fraction ([1]; 10 nM) | surviving fraction ([1]; 50 nM) | surviving fraction ([1]; 100 nM) | surviving fraction ([1]; 500 nM) | surviving fraction ([1]; 1000 nM) | surviving fraction (MK-1775; 0.5 nM) | surviving fraction (MK-1775; 1 nM) | surviving fraction (MK-1775; 5 nM) | surviving fraction (MK-1775; 10 nM) | surviving fraction (MK-1775; 50 nM) | surviving fraction (MK-1775; 100 nM) | surviving fraction (MK-1775; 500 nM) | surviving fraction (MK-1775; 1000 nM)
1 | SCC47 HEADNECK | 0.99 ± 0.038 | 0.992 ± 0.047 | 1.05 ± 0.047 | 1.06 ± 0.021 | 1 ± 0.075 | 1.08 ± 0.038 | 1.04 ± 0.028 | 1.03 ± 0.04 | 1.01 ± 0.031 | 1.06 ± 0.025 | 1.11 ± 0.051 | 1.11 ± 0.08 | 0.992 ± 0.053 | 0.713 ± 0.047 | 0.238 ± 0.025 | 0.159 ± 0.014
2 | LM7 BONE | 0.918 ± 0.051 | 0.885 ± 0.043 | 0.997 ± 0.08 | 0.97 ± 0.074 | 1.1 ± 0.11 | 1.01 ± 0.081 | 0.898 ± 0.013 | 0.758 ± 0.03 | 0.957 ± 0.1 | 0.947 ± 0.065 | 0.999 ± 0.12 | 0.982 ± 0.15 | 0.751 ± 0.013 | 0.506 ± 0.032 | 0.146 ± 0.016 | 0.0563 ± 0.0015
3 | BT549 BREAST | 1.03 ± 0.098 | 1.06 ± 0.033 | 1.14 ± 0.097 | 1.13 ± 0.082 | 1.07 ± 0.1 | 1.12 ± 0.1 | 1.08 ± 0.074 | 0.852 ± 0.019 | 1.15 ± 0.1 | 1.11 ± 0.13 | 1.09 ± 0.089 | 1.04 ± 0.089 | 0.783 ± 0.038 | 0.427 ± 0.011 | 0.0453 ± 0.0057 | 0.0453 ± 0.0032
4 | CME SYNOVIAL | 1.4 ± 0.11 | 1.39 ± 0.21 | 1.39 ± 0.19 | 1.23 ± 0.05 | 1.36 ± 0.22 | 1.31 ± 0.089 | 0.913 ± 0.11 | 0.507 ± 0.034 | 1.36 ± 0.27 | 1.31 ± 0.096 | 1.5 ± 0.11 | 1.24 ± 0.13 | 1.45 ± 0.094 | 1.4 ± 0.11 | 1.3 ± 0.18 | 0.385 ± 0.025
5 | 93VU HEADNECK | 1.03 ± 0.062 | 1.09 ± 0.15 | 1.1 ± 0.21 | 1.12 ± 0.063 | 1.11 ± 0.033 | 1.05 ± 0.089 | 0.932 ± 0.051 | 0.936 ± 0.094 | 1.05 ± 0.098 | 0.996 ± 0.034 | 1.13 ± 0.1 | 1.01 ± 0.033 | 0.649 ± 0.063 | 0.416 ± 0.038 | 0.22 ± 0.021 | 0.165 ± 0.029
6 | NY BONE | 0.969 ± 0.012 | 0.982 ± 0.027 | 1.023 ± 0.0066 | 1.09 ± 0.014 | 1.03 ± 0.039 | 1.04 ± 0.023 | 0.993 ± 0.025 | 0.977 ± 0.024 | 1.04 ± 0.056 | 1.01 ± 0.014 | 1.1 ± 0.017 | 1.03 ± 0.013 | 0.638 ± 0.04 | 0.254 ± 0.016 | 0.113 ± 0.0076 | 0.0633 ± 0.0021
7 | SUM149 BREAST | 1.07 ± 0.059 | 1.14 ± 0.027 | 1.09 ± 0.035 | 1.12 ± 0.037 | 1.06 ± 0.14 | 1.11 ± 0.13 | 1.08 ± 0.081 | 1.05 ± 0.12 | 1.13 ± 0.077 | 1.09 ± 0.069 | 1.16 ± 0.095 | 1.12 ± 0.097 | 0.706 ± 0.025 | 0.328 ± 0.024 | 0.073 ± 0.0044 | 0.0517 ± 0.0025
8 | SCC90 HEADNECK | 1 ± 0.084 | 1.01 ± 0.11 | 1.02 ± 0.052 | 1.1 ± 0.023 | 1.02 ± 0.046 | 1.12 ± 0.21 | 1.06 ± 0.23 | 1.14 ± 0.046 | 1.25 ± 0.31 | 1.2 ± 0.16 | 1.07 ± 0.078 | 1.12 ± 0.25 | 0.704 ± 0.034 | 0.355 ± 0.017 | 0.0583 ± 0.0068 | 0.0493 ± 0.011
9 | S68 BREAST | 0.916 ± 0.045 | 1.22 ± 0.11 | 1.29 ± 0.2 | 1.06 ± 0.18 | 1.1 ± 0.26 | 1.06 ± 0.27 | 0.688 ± 0.022 | 0.737 ± 0.089 | 1.17 ± 0.41 | 1.18 ± 0.27 | 1.03 ± 0.11 | 0.848 ± 0.13 | 0.663 ± 0.093 | 0.329 ± 0.048 | 0.101 ± 0.008 | 0.0703 ± 0.011
10 | SJSA1 BONE | 1.03 ± 0.038 | 0.99 ± 0.056 | 1.08 ± 0.066 | 1.1 ± 0.065 | 1.07 ± 0.013 | 1.09 ± 0.024 | 1.03 ± 0.056 | 1.03 ± 0.013 | 1 ± 0.011 | 1.0057 ± 0.00058 | 1.03 ± 0.026 | 1.04 ± 0.034 | 1.02 ± 0.033 | 0.938 ± 0.049 | 0.384 ± 0.011 | 0.317 ± 0.02
